Test results from publication PMC3702004, “Comparison of Intake and Systemic Relative Effect Potencies of Dioxin-like Compounds in Female Mice after a Single Oral Dose” (Environmental Health Perspectives, 2013).

Key:
[1] = Compound analysis: liver, adipose and plasma concentrations 3 days after a single oral dose; format: in vivo, female C57BL/6 mice; details: for Liver:adipose ratio: based on ng/g tissue, day 3
Method: (§1) Animals. Eight-week-old female C57BL/6 mice (Harlan laboratories, Venray, the Netherlands) were randomly assigned to treatment groups (six animals per group) and allowed to acclimate for 1.5 weeks. The animals were housed in groups in standard cages and conditions (23 ± 2°C, 50–60% relative humidity, 12-hr dark/light cycle) with free access to food and water. Mice received a single dose of test compound by oral gavage at a dosing volume of 10 mL/kg body weight (BW). Mice treated with corn oil vehicle (10 mL/kg BW) served as controls. For each congener, five different doses were administered, ranging from 0.5–100 μg/kg BW (TCDD) to 5,000–500,000 µg/kg BW (PCB-153). Detailed information on doses is provided in Supplemental Material, Table S1 (http://dx.doi.org/10.1289/ehp.1206336). On day 3 after dosing, animals were euthanized by CO2/O2 asphyxiation, and blood was immediately collected from the abdominal aorta. The liver, thymus, spleen, and adipose tissue were removed, weighed (liver, thymus, and spleen), snap frozen, and stored at –80°C. All animal treatments were performed with permission of the Animal Ethical Committee (DEC Utrecht) and performed according to the [Law on Animal Experiments (1977)]. Animals were treated humanely and with regard for alleviation of suffering.
(§2) Compound analysis. Adipose and liver tissues samples were homogenized in Na2SO4, followed by extraction and clean-up in one step, and then eluted with 200 mL 1:1 hexane:dichloromethane on an open column packed with 40% wt/wt H2SO4-impregnated silica and KOH-silica. Blood plasma samples were extracted on an open column using Chem-Elut (Agilent Technologies, Santa Clara, CA, USA) and then NaCl eluted with 75 mL 3:2 hexane:2-propanol. Clean-up was performed using a miniaturized silica column (as described above), and samples were eluted using 30 mL hexane. Because the samples typically contained high levels of the analytes, only a small fraction was evaporated and analyzed. Prior to evaporation, we spiked a fraction of the samples with ^13C-labeled standards. We checked potential loss of analytes during extraction and clean-up by reextracting the samples using the identical protocol used for the samples. […] Tetradecane was added prior to evaporation. Sample analysis followed the U.S. Environmental Protection Agency Method 1613 ([U.S. Environmental Protection Agency 1994]) using single ion monitoring mode on an Agilent 6809N gas chromatograph (Agilent Technologies) coupled with a Micromass Ultima Autospec Ultra high-resolution mass spectrometer (HRMS; Waters Corp., Milford, MA, USA). Compounds were separated on a 60 m × 0.25 mm DB5-MS column ([…]; J&W Scientific, Folsom, CA, USA). The HRMS was operated with electron impact ionization with electron energy of 35 eV and an ion source temperature of 250°C. To reduce the number of analyses, samples were pooled before clean-up. […] This method was used because full congener–specific separation could be achieved on the high-resolution GC–HRMS. For lipid determination, samples were evaporated to dryness after the extraction step, and the amount of lipids was determined gravimetrically. Concentrations were calculated based on lipid weight and wet weight. The analysis of samples for the PCB-118 5,000 μg/kg BW dose failed during the procedure; thus analysis for this group could not be completed.
Plasma and PBL isolation. Blood from two mice was pooled (total volume of approximately 1.4 mL); plasma and PBLs were then isolated using Ficoll Paque gradient (GE Healthcare Europe, Diegem, Belgium). Plasma samples were stored at –80°C until compound analysis. Isolated lymphocytes were lysed with RLT buffer (QIAGEN, Venlo, the Netherlands) as described in the QIAGEN RNAeasy kit protocol and stored at –80°C until use.

[2] = Body and organ weight, hepatic lipid content; format: in vivo, female C57BL/6 mice; details: day 3; for % lipid / g liver: pooled liver samples
Method: as §1, §2
Statistical analysis. Statistical significant differences of the means and variances were determined using one-way analysis of variance (ANOVA) followed by Tukey-Kramer multiple comparisons. Differences were considered statistically significant at p < 0.05. Statistical calculations were performed using GraphPad 6.01 (GraphPad Software Inc.).

[3] = toxic equivalency factor relative to TCDD; ref Van den Berg et al. 2006; cited from earlier work
[4] = oral dose 5000 µg/kg bw, 3 days after single oral dose
[5] = oral dose 15000 µg/kg bw, 3 days after single oral dose
[6] = oral dose 50000 µg/kg bw, 3 days after single oral dose
[7] = oral dose 150000 µg/kg bw, 3 days after single oral dose

Clc1ccc(-c2cc(Cl)c(Cl)c(Cl)c2Cl)cc1Cl [PCB-156, 2,3,3´,4,4´,5-hexachlorobiphenyl]
liver:adipose ratio (hepatic sequestration criterion 0.3) ([1]; 3 days after single oral dose, Table 1 doses): < 0.3
Liver:adipose ratio ([1]; dose 5,000 μg/kg BW): 0.09±0.02
Liver:adipose ratio ([1]; dose 15,000 μg/kg BW): 0.11±0.03
Liver:adipose ratio ([1]; dose 50,000 μg/kg BW): 0.12±0.02
tissue uptake ([1]; female, C57BL/6, mouse, in vivo, oral dose 5000 µg/kg bw, 3 days after single oral dose): 0.079 %ID/g
Adipose % dose / g tissue [1, 4]: 25 % dose / g tissue
Liver % dose / g tissue [1, 4]: 2.2 % dose / g tissue
Adipose % dose / g tissue [1, 5]: 22 % dose / g tissue
Liver % dose / g tissue [1, 5]: 2.3 % dose / g tissue
Plasma % dose / g tissue [1, 5]: 0.061 % dose / g tissue
Adipose % dose / g tissue [1, 6]: 34 % dose / g tissue
Liver % dose / g tissue [1, 6]: 4.1 % dose / g tissue
Plasma % dose / g tissue [1, 6]: 0.066 % dose / g tissue
Liver % dose / g tissue [1, 7]: 3.0 % dose / g tissue
Plasma % dose / g tissue [1, 7]: 0.045 % dose / g tissue
Plasma % dose / g tissue ([1]; oral dose 500000 µg/kg bw, 3 days after single oral dose): 0.037 % dose / g tissue
Body weight ([2]; oral dose 5000 µg/kg bw): 17.7 ± 0.7 gram
Liver weight ([2]; oral dose 5000 µg/kg bw): 4.71 ± 0.43 % of bw
Spleen weight ([2]; oral dose 5000 µg/kg bw): 0.27 ± 0.03 % of bw
Thymus weight ([2]; oral dose 5000 µg/kg bw): 0.21 ± 0.05 % of bw
% lipid / g liver ([2]; oral dose 5000 µg/kg bw): 3.0%
Body weight ([2]; oral dose 15000 µg/kg bw): 18.7 ± 1.3 gram
Liver weight ([2]; oral dose 15000 µg/kg bw): 5.14 ± 0.41 % of bw
Spleen weight ([2]; oral dose 15000 µg/kg bw): 0.30 ± 0.03 % of bw
Thymus weight ([2]; oral dose 15000 µg/kg bw): 0.23 ± 0.04 % of bw
% lipid / g liver ([2]; oral dose 15000 µg/kg bw): 3.3%
Body weight ([2]; oral dose 50000 µg/kg bw): 18.0 ± 0.9 gram
Liver weight ([2]; oral dose 50000 µg/kg bw): 5.96 ± 0.62 % of bw
Spleen weight ([2]; oral dose 50000 µg/kg bw): 0.31 ± 0.04 % of bw
Thymus weight ([2]; oral dose 50000 µg/kg bw): 0.25 ± 0.02 % of bw
% lipid / g liver ([2]; oral dose 50000 µg/kg bw): 5.7%
Body weight ([2]; oral dose 150000 µg/kg bw): 19.2 ± 1.1 gram
Liver weight ([2]; oral dose 150000 µg/kg bw): 6.79 ± 0.51 % of bw
Spleen weight ([2]; oral dose 150000 µg/kg bw): 0.29 ± 0.02 % of bw
Thymus weight ([2]; oral dose 150000 µg/kg bw): 0.21 ± 0.04 % of bw
% lipid / g liver ([2]; oral dose 150000 µg/kg bw): 6.8%
Body weight ([2]; oral dose 500000 µg/kg bw): 18.7 ± 0.6 gram
Liver weight ([2]; oral dose 500000 µg/kg bw): 8.10 ± 0.17 % of bw
Spleen weight ([2]; oral dose 500000 µg/kg bw): 0.33 ± 0.03 % of bw
Thymus weight ([2]; oral dose 500000 µg/kg bw): 0.18 ± 0.05 % of bw
Dose with significant increase in liver weight vs vehicle controls ([2]; single oral dose): ≥ 50,000 µg/kg BW
WHO-TEF [3]: 0.00003
